Assay results taken from patent US11472788B2, “Benzoimidazoles as selective inhibitors of indoleamine 2,3-dioxygenases” (BEIGENE, LTD., priority 2017, dated 2022).

Target: cellular IDO1 in HeLa cells (Homo sapiens (Human), UniProt P14902)
Assay: HeLa Cell-Based IDO1 Kyn (Kynurenine) Production Assay
Conditions: IFN-γ induced IDO1, 48 hours incubation, Kyn absorbance at 480 nm
Description: HeLa Cell-Based IDO1 Kyn (Kynurenine) Production Assay:
The inhibitory activity of IDO1 inhibitors is determined by using a colorimetric reaction to measure Kyn generated from L-Trp (L-Tryptophon) oxidation by cellular IDO1 in HeLa cells after induction of IDO1 expression by IFN-γ.
Hela cells were obtained from the American Type Culture Collection and recovered in 10% FBS-containing phenol red-free DMEM medium. Cells were plated onto a 96-well plate (100 μl/well) at 8000 cells per well and kept at 37° C. in a humidified incubator supplied with 5% CO2. 4 hours later, Human recombinant IFN-γ (8901SC, CST) was added to cells (final concentration 100 ng/mL) to stimulate endogenous IDOL. Compounds at different concentrations diluted in dimethylsulfoxide (DMSO) were added simultaneously with IFN-γ and 0.4 mM L-Trp. Cells were kept at 37° C. in a humidified incubator supplied with 5% CO2. After 48 hours of incubation, 100 μl supernatant from each well was removed to a new plate. The protein in the medium was precipitated with the addition of 8 μl 6N trichloroacetic acid. The plate was incubated at 60° C. for 30 minutes and then centrifugation at 2500 rpm for 10 minutes to remove sediments. 80 μl supernatants were carefully removed to a new clean plate and added with an equal volume of 2% 4-(Dimethylamino)benzaldehyde (D2004, sigma) dissolved in glacial acetic acid. The absorbance at 480 nm wavelength derived from Kyn was measured using a PHERAstar FS plate reader (BMG LABTECH). The IC5C for each compound was derived from fitting the dose-response data to the four-parameter logistic model by using XLfit software (IDBS).

cellular IDO1 in HeLa cells, sequence (P14902 whole entry): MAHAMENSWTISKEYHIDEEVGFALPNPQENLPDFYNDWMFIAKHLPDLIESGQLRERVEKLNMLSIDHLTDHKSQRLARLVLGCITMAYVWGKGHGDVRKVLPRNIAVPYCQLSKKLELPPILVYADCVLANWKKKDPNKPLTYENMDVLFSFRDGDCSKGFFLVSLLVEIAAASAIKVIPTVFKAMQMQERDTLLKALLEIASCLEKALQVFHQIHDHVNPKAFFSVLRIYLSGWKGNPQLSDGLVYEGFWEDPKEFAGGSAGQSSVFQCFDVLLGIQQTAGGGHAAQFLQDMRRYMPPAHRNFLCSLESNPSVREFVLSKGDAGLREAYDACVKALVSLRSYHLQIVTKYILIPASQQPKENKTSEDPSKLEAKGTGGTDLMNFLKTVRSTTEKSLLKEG

SMILES | EC50 [nM]
CC(C)c1ccc2[nH]c(C[C@H]3CC[C@H](c4ccnc5ccc(F)cc54)CC3)nc2c1 [Example A5a, 6-fluoro-4-((1r,4r)-4-((5-isopropyl-1H-benzo[d]imidazol-2-yl)methyl)cyclohexyl)quinoline] | 184
CC(C)c1ccc2[nH]c(C[C@H]3CC[C@@H](c4ccnc5ccc(F)cc54)CC3)nc2c1 [Example A5b, 6-fluoro-4-((1s,4s)-4-((5-isopropyl-1H-benzo[d]imidazol-2-yl)methyl)cyclohexyl)quinoline] | 23
Fc1ccc2nccc([C@H]3CC[C@H](Cc4nc5cc6c(cc5[nH]4)OCO6)CC3)c2c1 [Example A7a, 6-(((1r,4r)-4-(6-fluoroquinolin-4-yl)cyclohexyl)methyl)-5H-[1,3]dioxolo[4′,5′:4,5]benzo[1,2-d]imidazole] | 87
Fc1ccc2nccc([C@H]3CC[C@@H](Cc4nc5cc6c(cc5[nH]4)OCO6)CC3)c2c1 [Example A7b, 6-(((1s,4s)-4-(6-fluoroquinolin-4-yl)cyclohexyl)methyl)-5H-[1,3]dioxolo[4′,5′:4,5]benzo[1,2-d]imidazole] | 3.6
Fc1ccc2nccc([C@H]3CC[C@H](Cc4nc5cc(OC6CC6)ccc5[nH]4)CC3)c2c1 [Example A8a, 4-((1r,4r)-4-((5-cyclopropoxy-1H-benzo[d]imidazol-2-yl)methyl)cyclohexyl)-6-fluoroquinoline] | 528
Fc1ccc2nccc([C@H]3CC[C@@H](Cc4nc5cc(OC6CC6)ccc5[nH]4)CC3)c2c1 [Example A8b, 4-((1s,4s)-4-((5-cyclopropoxy-1H-benzo[d]imidazol-2-yl)methyl)cyclohexyl)-6-fluoroquinoline] | 50
Cc1c(Br)ccc2[nH]c(C[C@H]3CC[C@H](c4ccnc5ccc(F)cc54)CC3)nc12 [Example A11a, 4-((1r,4r)-4-((5-bromo-4-methyl-1H-benzo[d]imidazol-2-yl)methyl)cyclohexyl)-6-fluoroquinoline] | 135
Cc1c(Br)ccc2[nH]c(C[C@H]3CC[C@@H](c4ccnc5ccc(F)cc54)CC3)nc12 [Example A11b, 4-((1s,4s)-4-((5-bromo-4-methyl-1H-benzo[d]imidazol-2-yl)methyl)cyclohexyl)-6-fluoroquinoline] | 14
Fc1ccc2nccc(C3CCC(Cc4nc5cc(CN6CCCCC6)ccc5[nH]4)CC3)c2c1 (stereo not drawn) [Example A15, 6-fluoro-4-(4-((5-(piperidin-1-ylmethyl)-1H-benzo[d]imidazol-2-yl)methyl)cyclohexyl)quinoline] | 1950
Fc1ccc2nccc(C3CCC(Cc4nc5cc(N6CCCCC6)c(Br)cc5[nH]4)CC3)c2c1 (stereo not drawn) [Example A16, 4-(4-((6-bromo-5-(piperidin-1-yl)-1H-benzo[d]imidazol-2-yl)methyl)cyclohexyl)-6-fluoroquinoline] | 251
COc1cc2nc(CC3CCC(c4ccnc5ccc(F)cc45)CC3)[nH]c2cc1Br (stereo not drawn) [Example A17, 4-(4-((6-bromo-5-methoxy-1H-benzo[d]imidazol-2-yl)methyl)cyclohexyl)-6-fluoroquinoline] | 5
Fc1ccc(C2CCC(Cc3nc4cc(Cl)ccc4[nH]3)CC2)c2ncccc12 (stereo not drawn) [Example A24, 8-(4-((5-chloro-1H-benzo[d]imidazol-2-yl)methyl)cyclohexyl)-5-fluoroquinoline] | 158
Fc1ccc(C2CCC(Cc3nc4cc(C5CC5)ccc4[nH]3)CC2)c2cccnc12 (stereo not drawn) [Example A25, 5-(4-((5-cyclopropyl-1H-benzo[d]imidazol-2-yl)methyl)cyclohexyl)-8-fluoroquinoline] | 268
Fc1cc2nc(C[C@H]3CC[C@H](c4ccc(F)c5ncccc54)CC3)[nH]c2cc1F [Example A26a, 5-((1r,4r)-4-((5,6-difluoro-1H-benzo[d]imidazol-2-yl)methyl)cyclohexyl)-8-fluoroquinoline] | 466
Fc1cc2nc(C[C@H]3CC[C@@H](c4ccc(F)c5ncccc54)CC3)[nH]c2cc1F [Example A26b, 5-((1s,4s)-4-((5,6-difluoro-1H-benzo[d]imidazol-2-yl)methyl)cyclohexyl)-8-fluoroquinoline] | 205
Clc1ccc2[nH]c(CC3CCC(c4ccncc4)CC3)nc2c1 (stereo not drawn) [Example A28, 5-chloro-2-((4-(pyridin-4-yl)cyclohexyl)methyl)-1H-benzo[d]imidazole] | 1810
FC(F)(F)c1cc(C2CCC(Cc3nc4cc(Cl)ccc4[nH]3)CC2)ccn1 (stereo not drawn) [Example A29, 5-chloro-2-((4-(2-(trifluoromethyl)pyridin-4-yl)cyclohexyl)methyl)-1H-benzo[d]imidazole] | 179

SMILES | EC50 [nM]
c1ccc(C2CCC(Cc3nc4cc(C5CC5)ccc4[nH]3)CC2)cc1 (stereo not drawn) [Example A31, 5-cyclopropyl-2-((4-phenylcyclohexyl)methyl)-1H-benzo[d]imidazole] | 115
Clc1ccc2[nH]c(C3C4CCC(c5ccccc5)CC43)nc2c1 (stereo not drawn) [Example A36, 5-chloro-2-(3-phenylbicyclo[4.1.0]heptan-7-yl)-1H-benzo[d]imidazole] | 1670
Fc1ccc2nccc(C3CCN(Cc4nc5cc(Cl)ccc5[nH]4)CC3)c2c1 [Example A39, 4-(1-((5-chloro-1H-benzo[d]imidazol-2-yl)methyl)piperidin-4-yl)-6-fluoroquinoline] | 150
C[C@H](c1nc2cc(F)c(F)cc2[nH]1)[C@H]1CC[C@@H](c2ccnc3ccc(F)cc32)CC1 [Example B1b, 4-((1R,4s)-4-((S)-1-(5,6-difluoro-1H-benzo[d]imidazol-2-yl)ethyl)cyclohexyl)-6-fluoroquinoline] | 59
C[C@@H](c1nc2cc(Cl)c(F)cc2[nH]1)[C@H]1CC[C@@H](c2ccnc3ccc(F)cc32)CC1 [Example B2, 4-((1S,4s)-4-((R)-1-(5-chloro-6-fluoro-1H-benzo[d]imidazol-2-yl)ethyl)cyclohexyl)-6-fluoroquinoline] | 0.95
C[C@@H](c1nc2cc(Cl)c(F)cc2[nH]1)[C@H]1CC[C@@H](c2ccnc3ccc(F)cc32)CC1 [Example B2a, 4-((1R,4s)-4-((S)-1-(5-chloro-6-fluoro-1H-benzo[d]imidazol-2-yl)ethyl)cyclohexyl)-6-fluoroquinoline] | 0.38
C[C@H](c1nc2cc(Cl)c(F)cc2[nH]1)[C@H]1CC[C@@H](c2ccnc3ccc(F)cc32)CC1 [Example B2b, 4-((1S,4s)-4-((R)-1-(5-chloro-6-fluoro-1H-benzo[d]imidazol-2-yl)ethyl)cyclohexyl)-6-fluoroquinoline] | 50
COC(=O)c1ccc2[nH]c(C(C)C3CCC(c4ccnc5ccc(F)cc45)CC3)nc2c1 (stereo not drawn) [Example B3, methyl 2-(1-(4-(6-fluoroquinolin-4-yl)cyclohexyl)ethyl)-1H-benzo[d]imidazole-5-carboxylate] | 1.3
COC(=O)c1ccc2[nH]c([C@@H](C)[C@H]3CC[C@@H](c4ccnc5ccc(F)cc54)CC3)nc2c1 [Example B3a, methyl 2-((S)-1-((1s,4R)-4-(6-fluoroquinolin-4-yl)cyclohexyl)ethyl)-1H-benzo[d]imidazole-5-carboxylate] | 0.55
COC(=O)c1ccc2[nH]c([C@H](C)[C@H]3CC[C@@H](c4ccnc5ccc(F)cc54)CC3)nc2c1 [Example B3b, methyl 2-((R)-1-((1s,4S)-4-(6-fluoroquinolin-4-yl)cyclohexyl)ethyl)-1H-benzo[d]imidazole-5-carboxylate] | 81
C[C@@H](c1nc2cc(C(F)(F)F)ccc2[nH]1)[C@H]1CC[C@@H](c2ccnc3ccc(F)cc32)CC1 [Example B4, 6-fluoro-4-((1S,4s)-4-((R)-1-(5-(trifluoromethyl)-1H-benzo[d]imidazol-2-yl)ethyl)cyclohexyl)quinoline] | 1.4
C[C@@H](c1nc2c(F)cc(F)c(F)c2[nH]1)[C@H]1CC[C@@H](c2ccnc3ccc(F)cc32)CC1 [Example B5, 6-fluoro-4-((1S,4s)-4-((R)-1-(4,6,7-trifluoro-1H-benzo[d]imidazol-2-yl)ethyl)cyclohexyl)quinoline] | 1.4
C[C@H](c1nc2ccc(C#N)cc2[nH]1)[C@H]1CC[C@@H](c2ccnc3ccc(F)cc32)CC1 [Example B8, 2-((S)-1-((1s,4R)-4-(6-fluoroquinolin-4-yl)cyclohexyl)ethyl)-1H-benzo[d]imidazole-6-carbonitrile] | 6.9
C[C@@H](c1nc2cc(C(=O)N(C)C)ccc2[nH]1)[C@H]1CC[C@@H](c2ccnc3ccc(F)cc32)CC1 [Example B12, 2-((R)-1-((1s,4S)-4-(6-fluoroquinolin-4-yl)cyclohexyl)ethyl)-N,N-dimethyl-1H-benzo[d]imidazole-5-carboxamide] | 46
CCOC(=O)c1ccc2[nH]c([C@H](C)[C@H]3CC[C@@H](c4ccnc5ccc(F)cc54)CC3)nc2c1 [Example B17, ethyl 2-((R)-1-((1s,4S)-4-(6-fluoroquinolin-4-yl)cyclohexyl)ethyl)-1H-benzo[d]imidazole-5-carboxylate] | 0.58
C[C@H](c1nc2ccc(Cl)cc2[nH]1)C1CCC(c2cnc3ccccc3c2)CC1 (stereo partly drawn) [Example B25a, (S)-3-(4-(1-(6-chloro-1H-benzo[d]imidazol-2-yl)ethyl)cyclohexyl)quinoline] | 5.1
